# In US20260183295A1, “METHODS AND COMPOSITIONS FOR TREATING CANCER” (Onconova Therapeutics, Inc., priority 2022, published 2026):
# Columns and labels:
# GSK3B [1] = target: T1, GSK3B (Homo sapiens, UniProt P49841); assay: CETSA-MS, MDA-MB-231 cell lysates; type: binding; details: 2 μM and 20 μM
# T1 construct: endogenous in cells; host or cells: MDA-MB-231
# Method: (§1) Following treatment, cell lysates were thermally treated in a thermal gradient profile across a temperature range. Following the thermal shift, cell lysates were spun by centrifuge to pellet aggregate protein and the supernatant withdrawn. The supernatant was then denatured in buffer and heated to denature, reduce, and alkylate the supernatant proteins. Following heating and cooling to room temperature, cold acetone was added to the supernatant samples and proteins precipitated.
# (§2) The intact cell protein samples and lysate protein samples were then digested and labeled for mass spectrometry analysis according to the manufacturer's recommended protocols. Digested and labeled protein samples were analyzed by mass spectrometry proteomic analysis and the resulting protein targets were analyzed and plotted.
# PER3 = target: T2, PER3 (Homo sapiens, UniProt P56645); assay: CETSA-MS, MDA-MB-231 cell lysates; type: binding; details: 2 μM and 20 μM
# T2 construct: endogenous in cells; host or cells: MDA-MB-231
# Method: as §1, §2
# SLK = target: T3, SLK (Homo sapiens, UniProt Q9H2G2); assay: CETSA-MS, MDA-MB-231 cell lysates; type: binding; details: 2 μM and 20 μM
# T3 construct: endogenous in cells; host or cells: MDA-MB-231
# Method: as §1, §2
# CDK2 = target: T4, CDK2 (Homo sapiens, UniProt P24941); assay: CETSA-MS, MDA-MB-231 cell lysates; type: binding; details: 2 μM and 20 μM
# T4 construct: endogenous in cells; host or cells: MDA-MB-231
# Method: as §1, §2
# TGFBR2 = target: T5, TGFBR2 (Homo sapiens, UniProt P37173); assay: CETSA-MS, MDA-MB-231 cell lysates; type: binding; details: 2 μM and 20 μM
# T5 construct: endogenous in cells; host or cells: MDA-MB-231
# Method: as §1, §2
# EPHA2 = target: T6, EPHA2 (Homo sapiens, UniProt P29317); assay: CETSA-MS, MDA-MB-231 cell lysates; type: binding; details: 2 μM and 20 μM
# T6 construct: endogenous in cells; host or cells: MDA-MB-231
# Method: as §1, §2
# ATAT1 = target: T7, ATAT1 (Homo sapiens, UniProt Q5SQI0); assay: CETSA-MS, MDA-MB-231 cell lysates; type: binding; details: 2 μM and 20 μM
# T7 construct: endogenous in cells; host or cells: MDA-MB-231
# Method: as §1, §2
# USF2 = target: T8, USF2 (Homo sapiens, UniProt Q15853); assay: CETSA-MS, MDA-MB-231 cell lysates; type: binding; details: 2 μM and 20 μM
# T8 construct: endogenous in cells; host or cells: MDA-MB-231
# Method: as §1, §2
# [2] = test system: T-47D, HCC-1937, HS-578T, BT-474, MDA-MB-468, and MD-MB-453 cell lines; assay: MTT cell viability of breast cancer cell line panel versus comparators, 48 hrs (FIG. 17); type: cell-based
# NUAK1 = target: T9, NUAK1 (Homo sapiens, UniProt O60285); assay: NUAK1 NanoBret; type: cell-based
# T9 sequence (O60285 1-661): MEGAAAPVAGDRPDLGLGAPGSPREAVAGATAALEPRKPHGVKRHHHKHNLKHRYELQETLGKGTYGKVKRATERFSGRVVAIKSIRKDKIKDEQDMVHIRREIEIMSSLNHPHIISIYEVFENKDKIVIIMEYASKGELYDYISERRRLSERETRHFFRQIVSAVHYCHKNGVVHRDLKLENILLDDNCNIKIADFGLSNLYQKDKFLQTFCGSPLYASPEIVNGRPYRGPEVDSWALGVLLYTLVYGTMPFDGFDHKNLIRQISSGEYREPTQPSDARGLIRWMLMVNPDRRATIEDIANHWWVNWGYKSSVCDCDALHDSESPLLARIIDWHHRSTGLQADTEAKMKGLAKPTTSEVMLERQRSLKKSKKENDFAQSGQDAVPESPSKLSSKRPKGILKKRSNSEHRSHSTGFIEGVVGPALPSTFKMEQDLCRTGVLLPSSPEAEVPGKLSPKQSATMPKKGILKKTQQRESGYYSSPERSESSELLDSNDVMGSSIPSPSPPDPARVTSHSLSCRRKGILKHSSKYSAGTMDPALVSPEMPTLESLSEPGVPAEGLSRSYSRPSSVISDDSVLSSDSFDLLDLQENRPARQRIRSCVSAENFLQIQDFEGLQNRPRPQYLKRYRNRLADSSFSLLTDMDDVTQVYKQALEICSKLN
# Caspase 3 = assay: Western blot, MDA-MB-231 cells, 24 hours; type: cell-based; details: 2.5, 5, 10 μM, versus Comparator 1, 2 and 4
# GSK3B [3] = target: T1, GSK3B; assay: CETSA-MS, MDA-MB-231 cell lysates and intact cells; type: cell-based; details: present in both MDA-MB-231 cell lysates and intact cells
# Method: as §1
# (§3) TNBC MDA-MB-231 cells were grown at 37° C. in 5% CO2 and suspended in warm media and split into 4 equal volumes. […] Cells were incubated and then pelleted. Following pelleting, the cells were washed, resuspended, and heated in a thermal gradient. Following heating, the samples were flash frozen and lysed in lysis buffer, agitated by vortex, and sonicated prior to centrifugation. The supernatant was collected and denaturation buffer added. Cold acetone was then added to the cell samples, and protein collected by centrifugation. Pellets were then washed twice with cold acetone and the washed pellets prior to labeling.
# as §2
# AAK1 = target: T10, AAK1 (Homo sapiens, UniProt Q2M2I8); assay: CETSA-MS, MDA-MB-231 cell lysates and intact cells; type: cell-based; details: present in both MDA-MB-231 cell lysates and intact cells
# T10 construct: endogenous in cells; host or cells: MDA-MB-231
# Method: as §1, §3, §2
# BMP2K = target: T11, BMP2K (Homo sapiens, UniProt Q9NSY1); assay: CETSA-MS, MDA-MB-231 cell lysates and intact cells; type: cell-based; details: present in both MDA-MB-231 cell lysates and intact cells
# T11 construct: endogenous in cells; host or cells: MDA-MB-231
# Method: as §1, §3, §2
# GSK3A = target: T12, GSK3A (Homo sapiens, UniProt P49840); assay: CETSA-MS, MDA-MB-231 cell lysates and intact cells; type: cell-based; details: present in both MDA-MB-231 cell lysates and intact cells
# T12 construct: endogenous in cells; host or cells: MDA-MB-231
# Method: as §1, §3, §2
# pRb = assay: Western blot, MDA-MB-231 cells, 24 hours; type: cell-based; details: 2.5, 5, 10 μM, versus Comparator 1, 2 and 4
# Hs578t cells = assay: Wound healing assay (24 Hour Migration Assay); type: cell-based; details: 1.0 μM and 10.0 μM
# Method: (§4) A cell-free area was created in a confluent monolayer by physical exclusion or by removing the cells from the area through mechanical, thermal or chemical damage. The exposure to the cell-free area induced the cells to migrate into the gap. The rate of gap closure was measured and plotted.
# MDA-MB-231 cells = assay: Wound healing assay (24 Hour Migration Assay); type: cell-based; details: MDA-MB-231, 1.0 μM and 10.0 μM
# Method: as §4
# PARP in HCC-1937 = assay: PARP cleavage after 72 hours treatment; type: cell-based; details: HCC-1937 (TNBC)
# Method: (§5) The effects on the different treatment conditions on BUB 1 levels and PARP cleavage were also assessed. For both MNA-MB-231 cells, Compound 1 alone or with HCQ or SBI decreased BUB1 levels and cleaved PARP with […] decreases in cell viability observed for all treatments except Compound 1+SBI in MMA-MB-231 cells. The effects of Compound 1 with or without autophagy inhibitors was less pronounced in HCC-1937 cells.
# PARP in MDA-MB-468 = assay: PARP cleavage after 72 hours treatment; type: cell-based; details: MDA-MB-468 (TNBC)
# Method: as §5
# PARP in MDA-MB-231 = assay: PARP cleavage after 72 hours treatment; type: cell-based; details: MDA-MB-231 (TNBC)
# Method: as §5
# T1 sequence (P49841 whole entry): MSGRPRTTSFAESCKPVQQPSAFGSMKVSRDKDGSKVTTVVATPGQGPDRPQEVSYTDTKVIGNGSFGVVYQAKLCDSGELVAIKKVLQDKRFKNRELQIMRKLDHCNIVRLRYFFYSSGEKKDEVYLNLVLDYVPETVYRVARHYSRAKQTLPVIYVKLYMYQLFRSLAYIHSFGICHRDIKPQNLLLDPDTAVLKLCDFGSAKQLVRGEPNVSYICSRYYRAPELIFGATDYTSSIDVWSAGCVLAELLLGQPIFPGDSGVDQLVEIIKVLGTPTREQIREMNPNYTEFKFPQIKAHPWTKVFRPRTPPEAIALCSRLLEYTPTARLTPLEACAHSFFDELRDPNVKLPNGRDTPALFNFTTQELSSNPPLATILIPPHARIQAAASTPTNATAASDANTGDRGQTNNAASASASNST
# T2 sequence (P56645 whole entry): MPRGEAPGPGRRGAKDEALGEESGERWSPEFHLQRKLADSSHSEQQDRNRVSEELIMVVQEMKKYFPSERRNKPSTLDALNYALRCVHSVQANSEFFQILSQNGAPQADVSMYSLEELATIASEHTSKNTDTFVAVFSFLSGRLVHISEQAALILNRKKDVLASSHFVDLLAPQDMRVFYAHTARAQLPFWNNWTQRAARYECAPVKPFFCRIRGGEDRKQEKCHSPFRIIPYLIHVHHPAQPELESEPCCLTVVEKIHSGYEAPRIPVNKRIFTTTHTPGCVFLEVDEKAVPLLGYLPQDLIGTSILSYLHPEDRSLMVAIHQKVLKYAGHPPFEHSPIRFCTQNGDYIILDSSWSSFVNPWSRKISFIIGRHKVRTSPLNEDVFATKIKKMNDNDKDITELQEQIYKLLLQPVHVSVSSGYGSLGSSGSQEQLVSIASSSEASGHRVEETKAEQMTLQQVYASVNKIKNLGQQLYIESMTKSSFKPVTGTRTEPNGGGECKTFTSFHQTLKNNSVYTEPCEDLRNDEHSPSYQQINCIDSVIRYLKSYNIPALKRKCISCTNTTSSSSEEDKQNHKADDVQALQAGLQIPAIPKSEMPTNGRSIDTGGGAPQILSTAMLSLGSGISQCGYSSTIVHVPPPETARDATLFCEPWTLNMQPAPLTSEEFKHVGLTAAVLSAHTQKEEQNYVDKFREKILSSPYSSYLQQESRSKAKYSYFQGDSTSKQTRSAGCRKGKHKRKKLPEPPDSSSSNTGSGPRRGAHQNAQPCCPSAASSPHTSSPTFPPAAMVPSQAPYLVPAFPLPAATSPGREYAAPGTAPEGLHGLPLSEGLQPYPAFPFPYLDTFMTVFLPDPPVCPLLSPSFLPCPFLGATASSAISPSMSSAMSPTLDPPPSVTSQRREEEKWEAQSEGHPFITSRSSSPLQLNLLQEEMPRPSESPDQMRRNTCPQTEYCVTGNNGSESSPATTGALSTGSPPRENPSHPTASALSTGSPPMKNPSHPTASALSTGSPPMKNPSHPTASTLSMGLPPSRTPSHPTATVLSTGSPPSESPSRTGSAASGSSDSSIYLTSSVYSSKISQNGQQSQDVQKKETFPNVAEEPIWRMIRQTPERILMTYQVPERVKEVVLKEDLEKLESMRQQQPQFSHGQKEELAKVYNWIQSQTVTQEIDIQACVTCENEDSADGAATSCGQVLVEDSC
# T11 sequence (Q9NSY1 whole entry): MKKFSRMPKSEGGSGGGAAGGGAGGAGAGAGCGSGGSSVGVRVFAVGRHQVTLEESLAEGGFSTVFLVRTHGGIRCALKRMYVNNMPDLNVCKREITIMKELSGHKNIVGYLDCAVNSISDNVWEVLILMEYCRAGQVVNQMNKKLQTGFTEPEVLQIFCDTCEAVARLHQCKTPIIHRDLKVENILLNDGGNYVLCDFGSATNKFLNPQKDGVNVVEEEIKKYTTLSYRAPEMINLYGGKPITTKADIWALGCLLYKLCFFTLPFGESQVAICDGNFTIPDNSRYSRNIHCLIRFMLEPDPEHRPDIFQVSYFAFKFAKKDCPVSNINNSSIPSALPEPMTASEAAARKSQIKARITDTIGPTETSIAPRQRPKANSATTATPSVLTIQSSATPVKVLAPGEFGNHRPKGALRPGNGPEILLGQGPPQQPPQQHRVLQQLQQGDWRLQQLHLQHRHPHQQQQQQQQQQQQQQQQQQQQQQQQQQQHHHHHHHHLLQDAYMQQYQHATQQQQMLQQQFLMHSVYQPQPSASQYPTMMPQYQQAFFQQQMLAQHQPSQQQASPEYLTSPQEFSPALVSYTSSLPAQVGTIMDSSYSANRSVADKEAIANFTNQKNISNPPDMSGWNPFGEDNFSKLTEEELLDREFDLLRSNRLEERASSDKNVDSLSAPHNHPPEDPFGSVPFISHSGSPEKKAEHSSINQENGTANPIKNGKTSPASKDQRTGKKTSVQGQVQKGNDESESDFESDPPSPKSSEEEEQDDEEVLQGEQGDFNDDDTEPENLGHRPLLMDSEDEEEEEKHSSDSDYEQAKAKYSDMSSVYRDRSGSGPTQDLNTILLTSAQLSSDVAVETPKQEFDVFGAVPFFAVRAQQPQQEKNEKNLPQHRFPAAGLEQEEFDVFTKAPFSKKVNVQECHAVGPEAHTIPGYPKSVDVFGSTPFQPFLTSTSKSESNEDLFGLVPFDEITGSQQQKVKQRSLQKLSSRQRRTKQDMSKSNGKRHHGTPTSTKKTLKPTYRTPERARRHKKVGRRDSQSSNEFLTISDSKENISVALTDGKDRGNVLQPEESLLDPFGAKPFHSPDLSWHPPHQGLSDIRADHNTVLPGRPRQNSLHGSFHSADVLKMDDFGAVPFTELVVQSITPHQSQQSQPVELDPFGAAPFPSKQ
# T10 sequence (Q2M2I8 whole entry): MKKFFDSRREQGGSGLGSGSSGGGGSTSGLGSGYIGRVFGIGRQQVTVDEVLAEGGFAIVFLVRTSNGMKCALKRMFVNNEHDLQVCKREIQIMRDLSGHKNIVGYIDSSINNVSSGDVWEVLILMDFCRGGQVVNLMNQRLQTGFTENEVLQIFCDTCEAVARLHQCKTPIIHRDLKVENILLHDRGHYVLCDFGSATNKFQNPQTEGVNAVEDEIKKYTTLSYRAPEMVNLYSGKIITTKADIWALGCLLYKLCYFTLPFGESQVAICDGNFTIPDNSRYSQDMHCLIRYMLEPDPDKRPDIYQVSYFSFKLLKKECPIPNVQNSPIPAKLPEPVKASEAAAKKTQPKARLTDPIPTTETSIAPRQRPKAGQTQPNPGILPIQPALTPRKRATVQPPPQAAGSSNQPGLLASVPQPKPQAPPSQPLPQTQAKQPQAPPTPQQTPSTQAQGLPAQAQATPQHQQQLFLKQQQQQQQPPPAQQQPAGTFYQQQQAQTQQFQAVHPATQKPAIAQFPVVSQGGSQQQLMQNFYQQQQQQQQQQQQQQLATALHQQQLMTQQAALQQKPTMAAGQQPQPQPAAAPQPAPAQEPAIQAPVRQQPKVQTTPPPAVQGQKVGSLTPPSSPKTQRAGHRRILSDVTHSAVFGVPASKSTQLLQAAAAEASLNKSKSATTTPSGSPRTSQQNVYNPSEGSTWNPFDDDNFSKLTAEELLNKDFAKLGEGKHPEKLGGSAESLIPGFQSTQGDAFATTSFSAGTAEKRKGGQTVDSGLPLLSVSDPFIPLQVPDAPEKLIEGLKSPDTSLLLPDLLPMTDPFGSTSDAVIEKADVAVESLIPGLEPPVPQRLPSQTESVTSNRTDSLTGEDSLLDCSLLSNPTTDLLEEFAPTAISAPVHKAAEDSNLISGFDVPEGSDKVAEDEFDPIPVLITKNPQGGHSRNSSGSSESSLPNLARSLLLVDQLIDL
# T5 sequence (P37173 23-567): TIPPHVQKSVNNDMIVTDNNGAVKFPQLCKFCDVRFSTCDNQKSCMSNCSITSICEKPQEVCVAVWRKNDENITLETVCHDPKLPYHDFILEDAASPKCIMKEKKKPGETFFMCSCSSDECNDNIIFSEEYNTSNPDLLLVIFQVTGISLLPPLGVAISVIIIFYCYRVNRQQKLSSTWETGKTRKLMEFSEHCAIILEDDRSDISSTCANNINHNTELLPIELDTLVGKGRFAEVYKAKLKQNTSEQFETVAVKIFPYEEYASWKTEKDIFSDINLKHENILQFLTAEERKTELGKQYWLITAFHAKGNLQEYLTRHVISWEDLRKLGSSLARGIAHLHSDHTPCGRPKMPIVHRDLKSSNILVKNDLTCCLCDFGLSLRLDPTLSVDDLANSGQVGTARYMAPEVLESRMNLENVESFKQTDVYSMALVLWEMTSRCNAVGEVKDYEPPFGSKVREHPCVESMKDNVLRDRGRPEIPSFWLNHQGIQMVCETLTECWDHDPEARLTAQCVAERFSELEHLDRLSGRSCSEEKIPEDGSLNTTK
# T8 sequence (Q15853 whole entry): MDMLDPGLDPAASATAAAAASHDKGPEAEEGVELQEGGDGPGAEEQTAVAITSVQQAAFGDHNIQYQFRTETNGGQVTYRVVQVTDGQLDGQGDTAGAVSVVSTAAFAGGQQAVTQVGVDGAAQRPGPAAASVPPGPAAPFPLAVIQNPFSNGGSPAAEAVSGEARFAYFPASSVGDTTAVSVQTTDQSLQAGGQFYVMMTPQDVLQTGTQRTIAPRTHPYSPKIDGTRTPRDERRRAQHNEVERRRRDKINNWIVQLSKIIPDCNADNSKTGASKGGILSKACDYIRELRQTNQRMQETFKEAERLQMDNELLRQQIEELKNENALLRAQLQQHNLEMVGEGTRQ
# T7 sequence (Q5SQI0 whole entry): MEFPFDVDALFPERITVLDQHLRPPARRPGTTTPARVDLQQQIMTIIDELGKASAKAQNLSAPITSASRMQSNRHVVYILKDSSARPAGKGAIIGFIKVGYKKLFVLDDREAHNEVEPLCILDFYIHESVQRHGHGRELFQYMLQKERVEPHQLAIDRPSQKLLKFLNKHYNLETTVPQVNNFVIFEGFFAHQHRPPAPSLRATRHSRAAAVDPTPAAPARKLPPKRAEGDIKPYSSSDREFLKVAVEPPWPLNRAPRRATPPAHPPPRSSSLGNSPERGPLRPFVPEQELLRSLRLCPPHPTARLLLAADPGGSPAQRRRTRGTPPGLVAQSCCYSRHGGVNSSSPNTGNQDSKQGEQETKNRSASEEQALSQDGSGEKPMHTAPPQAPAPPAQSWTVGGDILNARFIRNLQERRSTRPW
structure (smiles),measurement,setting,value
"CN1CCN(c2ccc(Nc3ncc4cc(C#N)c(=O)n(C5CCCC5)c4n3)cc2)CC1 [Compound 1, 8-cyclopentyl-2-((4-(4-methylpiperazin-1-yl)phenyl)amino)-7-oxo-7,8-dihydropyrido[2,3-d]pyrimidine-6-carbonitrile]",Group (CETSA-MS thermal shift),GSK3B [1],Stabilization
same,Group (CETSA-MS thermal shift),PER3,Stabilization
same,Group (CETSA-MS thermal shift),SLK,Stabilization
same,Group (CETSA-MS thermal shift),CDK2,Stabilization
same,Group (CETSA-MS thermal shift),TGFBR2,Stabilization
same,Group (CETSA-MS thermal shift),EPHA2,Stabilization
same,Group (CETSA-MS thermal shift),ATAT1,Stabilization
same,Group (CETSA-MS thermal shift),USF2,Stabilization
same,dose dependence of cell death (MTT),"[2]; 2.5, 5.0, 10 μM, HCC-1937, Hs-578T, BT-474, MDA-MB-468, MDA-MB-453",dose-dependent effect
same,"cell death (MTT), comparison of treatments","[2]; Comparator 4 10 μM, Comparator 1 and 2 5 μM, Compound 1 2.5, 5.0, 10 μM",greater potency in inducing cell death compared to both Comparator 1 and Comparator 2
same,IC50,NUAK1,42 nM
same,Caspase 3 levels,Caspase 3,decreasing
same,Group (CETSA-MS thermal shift),GSK3B [3],Stabilization
same,Group (CETSA-MS thermal shift),AAK1,Stabilization
same,Group (CETSA-MS thermal shift),BMP2K,Stabilization
same,Group (CETSA-MS thermal shift),GSK3A,Stabilization
same,pRb levels,pRb,decreasing
same,cell migration (rate of gap closure),Hs578t cells,inhibited cell migration significantly more than Comparator 1
same,cell migration (rate of gap closure),MDA-MB-231 cells,inhibited cell migration significantly more than Comparator 1
same,PARP Cleavage,PARP in HCC-1937,No
same,PARP Cleavage,PARP in MDA-MB-468,Yes
same,PARP Cleavage,PARP in MDA-MB-231,Yes
